Reference: patent US7939097B2, “Intraocular lens containing releasable medication” (Carl Zeiss Meditec SAS, priority 1996, dated 2011)
Values joined by “and” are separate entries in the source; they are usually repeats but may differ in a detail not shown here. Identical values can stand only once.

Key:
[1] = Diclofenac absorbed versus time in the impregnation solution after sterilization (Example 12); format: physicochemical; settings: for Average amount of diclofenac released (absorbed) per IOL: average of three IOLs; for amount of diclofenac released (absorbed) per IOL: individual tests
Experimental: This example included tests on 21 IOLs to ascertain the time it takes for the amount of diclofenac absorbed by the IOL to reach its equilibrium. Each IOL was immersed in 5 ml of 1.5 mg/ml diclofenac solution in deionized water and then sterilized as is conventional, namely at 120° C. for a period of 30 minutes. The sterilized IOLs were then allowed to cool and left in the impregnation solution at room temperature for respective periods of 10 days, 20 days, 35 days, 41 days, 50 days and 65 days. At the end of each of these periods, three IOLs were removed and the quantity of diclofenac was then measured by forced release comprising cycles in a double boiler at 97° C. followed by rest periods until the diclofenac was entirely released from the IOLs.
The amounts of diclofenac released and corresponding to the amounts absorbed for the respective periods are expressed in μg.

[2] = Forced release of diclofenac after autoclaving and 10 days in the impregnation solution (Example 10); format: physicochemical
Experimental: Each of three hydrophilic acrylic implants of the type used in Example 9 was first introduced into the container with a 0.9% NaCl solution containing 1.5 mg/ml diclofenac solution. The container was then autoclaved at 122° C. for 30 minutes. After autoclaving, the IOLs were left in their impregnation solution for 10 days at ambient temperature. The procedure described in Example 9 was used to release the absorbed quantities of the diclofenac from the IOLs. The amounts released were respectively 83.57 μg, 101.66 μg, 84.16 μg or an average of 89.79 μg per implant.

[3] = test system: postoperative inflammation of the eye; experiment: Anti-inflammatory effect of diclofenac-impregnated IOL after cataract operation in rabbits (Example 14); format: in vivo, rabbit; settings: diclofenac-impregnated IOL versus same IOL without medicated product in opposite eye, three rabbits
Experimental: A test was carried out on three rabbits which were implanted with hydrophilic acrylic IOLs impregnated by autoclaving in a 1.5 mg/ml diclofenac solution at 120° C. for 30 minutes as described in Example 9 above. The object of this test was to determine the anti-inflammatory effect of diclofenac after a cataract operation. After extraction, the crystalline lens in each eye, the left eye was fitted with an impregnated IOL according to the invention and the right eye with the same kind of IOL with no medicated product therein. The eyes of the rabbit were examined by an operator on day one and microscopically by an ophtalmologist on day 7 and day 14 after the operation. The observations are set out in the following table.

[4] = In vitro kinetics of release of diclofenac at 35° C. over 14 days; format: physicochemical; settings: release in 0.9% NaCl at 35° C.
Experimental: The following experiments were intended to determine more precisely the kinetics of release of diclofenac (in vitro experiments). As previously, the quantities released were measured by sampling the release medium (0.9% neutral NaCl solution) at intervals for measurement and renewing it for a new interval. The samples were taken after 6 hours and 24 hours and then every 24 hours for 14 days in total. To approximate the actual (i.e. in vivo) conditions of use more closely, release was effected at 35° C. The IOLs were impregnated by two different methods. […] A second experiment was carried out without sterilization, the IOLs remaining in the diclofenac solution for 24 hours. The quantities released were substantially the same, to within ±10%, and are set out in the table below in hours (H), days (D) and μg/ml.

[5] = In vitro release of diclofenac from polyHEMA soft IOLs, impregnated for 7 days (Example 8); format: physicochemical; settings: for Released quantities: polyHEMA IOL impregnated 7 days in saturated diclofenac; for Cumulative or total released quantities: polyHEMA IOL impregnated 7 days
Experimental: (§1) Initially, polyHEMA soft IOLs were impregnated by immersing them in a solution saturated with diclofenac (1.8 mg/ml, prepared by dissolving sodium diclofenac in a 0.9% solution of NaCl), at room temperature for 72 hours, carefully rinsed and then released into 1 ml of a 0.9% NaCl solution. After 6 hours, 24 hours and 96 hours, the diclofenac was measured in the release solution by HPLC, after which the IOL was rinsed and, for the intermediate durations, left to release in a new solution. It is understood that the released quantities correspond to the quantities previously absorbed and fixed in the IOLs The experiment of Example 7 was repeated leaving the IOLs in the saturated solution for 7 days instead of 3. The quantities released were checked after 6 hours and 24 hours.

[6] = Diclofenac fixed from lower-concentration solutions after prior sterilization (Example 13); format: physicochemical; settings: pre-sterilized hydrophilic acrylic IOL; for quantity of diclofenac fixed per IOL: 4 days of immersion
Experimental: In these tests, the hydrophilic acrylic IOLs were first sterilized in their sealed containers in a 0.9% NaCl solution, in accordance with the standard sterilization procedure used for conventional IOLs. The solution contained no active ingredient of any kind. After sterilization at 121° C. for 30 minutes the containers were opened and the IOLs transferred to other containers which had previously been filled with a 0.9% NaCl solution including respectively 0.9 mg/ml, 0.45 mg/ml and 0.225 mg/ml of diclofenac. The IOLs remained immersed in the impregnation solution for 4 days in each case. Thereafter the absorbed quantities of diclofenac were driven out of the IOLs in double boilers at 97° C. as described above. […] In a second series of tests conducted with an impregnation solution of 0.9% NaCl with 0.9 mg/ml under the same conditions as in the first series, except that the residence in the impregnation solution was 49 days. The resulting average quantity of diclofenac fixed by the IOLs was 502 μg per implant.

[7] = Saturated diclofenac solution in 0.9% NaCl; format: physicochemical; settings: sodium diclofenac dissolved in 0.9% NaCl solution
Experimental: as §1, with “In all the preceding examples the diclofenac was used at concentrations” for “The experiment”, “1.8 mg/ml or 1.5 mg/ml that is at or only slightly below” for “Example 7 was repeated leaving”, “saturation level.” for “IOLs in the saturated solution for 7 days instead of 3. The quantities released were checked after 6 hours and 24 hours.”

[8] = In vitro release of diclofenac from polyHEMA soft IOLs, impregnated for 72 hours (Example 7); format: physicochemical
Experimental: as §1, with “IOLs” for “IOLs The experiment of Example 7 was repeated leaving the IOLs in the saturated solution for 7 days instead of 3. The quantities released were checked after 6 hours and 24 hours.”

[9] = test system: inflammatory reactions of the eye; format: in vivo
Experimental: (§2) Samples of aqueous humor (approximately 150 μl) and plasma (approximately 2 ml) were taken at random intervals.

[10] = in vivo; settings: rabbit
Experimental: as §2

[11] = test system: inflammatory reactions of the eye; experiment: Clinical examination of rabbit eyes implanted with indomethacin PMMA lenses (Example 3); format: in vivo; settings: PMMA IOL impregnated with indomethacin implanted in rabbit eye, opposite eye as control

O=C(O)Cc1ccccc1Nc1c(Cl)cccc1Cl [diclofenac]
Average amount of diclofenac released (absorbed) per IOL ([1]; Day 0): 33.58 µg | Average amount of diclofenac released (absorbed) per IOL ([1]; Day 35): 92.96 µg | Average amount of diclofenac released (absorbed) per IOL ([1]; Day 41): 102.39 µg | Average amount of diclofenac released (absorbed) per IOL ([1]; Day 50): 104.33 µg | Average amount of diclofenac released (absorbed) per IOL ([1]; Day 65): 102.37 µg | amount of diclofenac released (absorbed) per IOL ([1]; sterilized at 120° C. for 30 minutes in 1.5 mg/ml diclofenac in deionized water, Day 0): 36.01 µg and 31.13 µg and 33.59 µg | amount of diclofenac released (absorbed) per IOL ([1]; sterilized, then left in impregnation solution at room temperature, Day 10): 83.57 µg and 101.66 µg and 84.16 µg | amount of diclofenac released (absorbed) per IOL ([1]; sterilized, then left in impregnation solution, Day 20): 92.68 µg and 95.60 µg and 109.99 µg | amount of diclofenac released (absorbed) per IOL ([1]; sterilized, then left in impregnation solution, Day 35): 86.65 µg and 100.06 µg and 92.18 µg | amount of diclofenac released (absorbed) per IOL ([1]; sterilized, then left in impregnation solution, Day 41): 106.94 µg and 108.33 µg and 91.90 µg | amount of diclofenac released (absorbed) per IOL ([1]; sterilized, then left in impregnation solution, Day 50): 85.29 µg and 114.80 µg and 112.90 µg | amount of diclofenac released (absorbed) per IOL ([1]; sterilized, then left in impregnation solution, Day 65): 107.06 µg and 98.64 µg and 101.41 µg | average amount of diclofenac released per implant ([2]; as Example 10, average of three implants): 89.79 µg | amounts of diclofenac released per implant ([2]; hydrophilic acrylic IOL autoclaved at 122° C. for 30 minutes in 1.5 mg/ml diclofenac in 0.9% NaCl, then 10 days in the solution at ambient temperature, individual implants): 83.57 µg and 101.66 µg and 84.16 µg | anti-inflammatory effect, summary [3]: real anti-inflammatory effect | quantities released (Q) ([4]; IOL saturated with diclofenac, medium renewed each interval, 6 H): 95 µg/mL | quantities released (Q) ([4]; medium renewed, 2 D): 40 µg/mL | quantities released (Q) ([4]; medium renewed, 3 D): 30 µg/mL | quantities released (Q) ([4]; medium renewed, 4 D): 20 µg/mL | quantities released (Q) ([4]; medium renewed, 5 D): 18 µg/mL | quantities released (Q) ([4]; medium renewed, 6 D): 12 µg/mL | quantities released (Q) ([4]; medium renewed, 7 D): 10 µg/mL | quantities released (Q) ([4]; medium renewed, 8 D): 10 µg/mL | quantities released (Q) ([4]; medium renewed, 9 D): 11 µg/mL | quantities released (Q) ([4]; medium renewed, 10 D): 12 µg/mL | quantities released (Q) ([4]; medium renewed, 11 D): 14 µg/mL | quantities released (Q) ([4]; medium renewed, 12 D): 16 µg/mL | quantities released (Q) ([4]; medium renewed, 13 D): 18 µg/mL | quantities released (Q) ([4]; medium renewed, 14 D): 20 µg/mL | quantities released (Q) ([4]; medium renewed, 24 H): 80 µg/mL | Released quantities ([5]; 6 hours): 122 µg/mL | Released quantities ([5]; 24 hours): 109 µg/mL | Cumulative or total released quantities ([5]; 6 hours): 122 µg/mL | Cumulative or total released quantities ([5]; 24 hours): 231 µg/mL | quantity of diclofenac fixed per IOL ([6]; 0.225 mg/ml diclofenac in 0.9% NaCl): 70 µg | quantity of diclofenac fixed per IOL ([6]; 0.45 mg/ml diclofenac in 0.9% NaCl): 148 µg | quantity of diclofenac fixed per IOL ([6]; 0.90 mg/ml diclofenac in 0.9% NaCl): 276 µg | average quantity of diclofenac fixed per implant ([6]; 0.9 mg/ml diclofenac in 0.9% NaCl, 49 days in the impregnation solution): 502 µg | concentration of solution saturated with diclofenac [7]: 1800 µg/mL | Released quantities ([8]; polyHEMA IOL impregnated 72 hours at room temperature in saturated diclofenac, release into 1 ml 0.9% NaCl, 6 hours): 127 µg/mL | Cumulative or total released quantities ([8]; polyHEMA IOL impregnated 72 hours, 6 hours): 127 µg/mL | Cumulative or total released quantities ([8]; polyHEMA IOL impregnated 72 hours, 24 hours): 222 µg/mL | Cumulative or total released quantities ([8]; polyHEMA IOL impregnated 72 hours, 96 hours): 333 µg/mL | Released quantities ([8]; polyHEMA IOL impregnated 72 hours, release into new 1 ml 0.9% NaCl, 24 hours): 95 µg/mL | Released quantities ([8]; polyHEMA IOL impregnated 72 hours, release into new 1 ml 0.9% NaCl, 96 hours): 111 µg/mL

COc1ccc2c(c1)c(CC(=O)O)c(C)n2C(=O)c1ccc(Cl)cc1 [indomethacin]
clinical observations: inflammatory reactions ([9]; polyHEMA lens impregnated with indomethacin, rabbit eye): inflammatory reactions disappeared at least as quickly as in Example 3 | clinical observations: tolerance of the lenses ([9]; rabbit, in vivo): well tolerated | concentration at 7 day [10]: ~0.11 µg/mL | clinical examination: inflammatory reactions [11]: inflammatory reactions had disappeared by the tenth day from implantation
